Measurements as given in ChEMBL document CHEMBL4651402, “Screening of ~5500 FDA-approved drugs and clinical candidates for anti-SARS-CoV-2 activity” (2021).

Columns and labels:
SARS-CoV-2 [1] = assay: microbe, parasite or virus in culture; settings: Severe acute respiratory syndrome coronavirus 2, Vero C1008, 48 h
SARS-CoV-2 [2] = assay: microbe, parasite or virus in culture; type: functional, organism-based, Chlorocebus sabaeus, Vero C1008; settings: Severe acute respiratory syndrome coronavirus 2, Vero C1008, 48 h
in vitro = settings: chlorocebus sabaeus, Vero E6 (Vero C1008) cells

SMILES | IC50 (SARS-CoV-2 [1]) [µM] | IC50 (SARS-CoV-2 [1]; read-out: pIC50 (converted)) [µM] | IC50 (SARS-CoV-2 [2]; read-out: IC50) [µM] | IC50 (SARS-CoV-2 [2]; read-out: pIC50 (converted)) [µM] | CC50 at 48 h (in vitro; pCC50) [µM] | CC50 at 48 h (in vitro; CC50) [µM]
CN(C)S(=O)(=O)c1ccc2c(c1)N(CCCN1CCC(CCO)CC1)c1ccccc1S2 [PIPOTIAZINE] | 13.8 | 13.8 | > 100 | > 100 | 7.24 | 
CC(C)(C)c1cc(C(C)(C)C)c(NC(=O)c2c[nH]c3ccccc3c2=O)cc1O [IVACAFTOR] | 4.57 | 4.57 | > 25.1 | > 25.1 | 4.57 | 4.62
CC[C@@H]1C(=O)N(C)c2cnc(Nc3ccc(C(=O)N[C@H]4CC[C@H](N5CCN(CC6CC6)CC5)CC4)cc3OC)nc2N1C(C)C [VOLASERTIB] | > 50.1 | > 50.1 | > 50.1 | > 50.1 | 0.234 | 0.234
CN1C2CCC1CC(OC(c1ccccc1)c1ccc(Cl)cc1)C2 (stereo not drawn) | 9.77 | 9.77 | > 100 | > 100 | 8.13 | 8.13
C#C[C@]1(O)CC[C@H]2[C@@H]3CCC4=CCCC[C@@H]4[C@H]3CC[C@@]21C [LYNESTRENOL] | > 50.1 | > 50.1 | > 50.1 | > 50.1 | 10.5 | 10.5
CO[C@H]1CC[C@H](n2c([C@H]3CCCC(=O)N3c3ccc(F)c(F)c3)nc3cc(-c4c(C)noc4C)ccc32)CC1 (relative stereo) | > 100 | > 100 | > 100 | > 100 | 9.12 | 9.12
O=c1ccc2ccc(OCCCCN3CCN(c4cccc5sccc45)CC3)cc2[nH]1 [BREXPIPRAZOLE] | > 100 | > 100 | > 100 | > 100 | 12 | 12
CCN(CCO)CCC[C@H](C)Nc1ccnc2cc(Cl)ccc12 | 12.7 | 12.6 | ~18.8 | ~18.6 | > 50.1 | > 50.1
Cc1cc(-c2ccc(/N=N/c3ccc4c(S(=O)(=O)O)cc(S(=O)(=O)O)c(N)c4c3O)c(C)c2)ccc1/N=N/c1ccc2c(S(=O)(=O)O)cc(S(=O)(=O)O)c(N)c2c1O [EVANS BLUE FREE ACID] | > 100 | > 100 | > 100 | > 100 | 17.8 | 18
COc1cc2c(Oc3ccc4[nH]c(C)cc4c3F)ccnc2cc1OCC1(N)CC1 [CATEQUENTINIB] | > 100 | > 100 | > 100 | > 100 | 5.25 | 5.25
CN1CCN(CCCN2c3ccccc3Sc3ccc(C(F)(F)F)cc32)CC1 [TRIFLUOPERAZINE] | 6.46 | 6.46 | > 100 | > 100 | 7.94 | 7.94
CN1CCN(CC/C=C2/c3ccccc3Sc3ccc(S(=O)(=O)N(C)C)cc32)CC1 [THIOTHIXENE] | > 100 | > 100 | 5.75 | 5.75 | 4.9 | 4.96
Clc1ccc(-c2nn(Cc3ccccc3)c3c2CCNCC3)cc1 [JNJ-18038683 FREE BASE] | > 25.1 | > 25.1 | > 25.1 | > 25.1 | 14.5 | 14.6
Cc1ccc(-c2nc3c(nc2-c2ccc(C)cc2)N(CCCCCCC(=O)O)CCC3)cc1 | 17.4 | 17.4 | ~16.6 | ~16.6 | 50.1 | 50.1
Cc1ccc(C(=O)Oc2ccc(C(O)CNC(C)(C)C)cc2OC(=O)c2ccc(C)cc2)cc1 (stereo not drawn) [BITOLTEROL] | 8.13 | 8.13 | > 100 | > 100 | 5.62 | 5.69
COc1cc(Br)c2oc(C3CCNCC3)cc2c1 [BROFAROMINE] | 14.8 | 14.8 | > 100 | > 100 | 19.1 | 19.1
Cc1[nH]c(/C=C2/C(=O)Nc3ccccc32)c(C)c1CCC(=O)O | ~2 | ~2 | > 50.1 | > 50.1 | > 50.1 | > 50.1
O=c1[nH]c2ccccc2n1CCCN1CCN(C(c2ccccc2)c2ccccc2)CC1 [OXATOMIDE] | > 100 | > 100 | > 100 | > 100 | ~12.6 | ~12.6
CN(C)CC/C=C1\c2ccccc2OCc2c1oc1ccccc21 | 18.2 | 18.2 | > 100 | > 100 | 12 | 12.2
